Measured values reported in patent publication US5869482A, “Dipyridio[2,3-b:3',2'-] azepines and their use in the prevention or treatment of HIV infection” (priority 1997, dated 1999).

How the values were obtained:
HIV-1 RT (K103N) mutant = target: T1, HIV-1 RT (K103N) mutant (Human immunodeficiency virus type 1 group M subtype B, UniProt P03367, K702N); assay: biochemical; design: species or system Human Immunodeficiency Virus (HIV-1); conditions: 1 μM compound; RNA-dependent DNA polymerase activity; read-out: RT (K103N) % inh. (1 μM)
T1 construct: Reverse transcriptase enzyme from the LAV strain; made in house; host or cells: E. coli JM109 with clone pBRTprtl+ in vector pIBI21 (stated for the wild-type enzyme; inferred for the K103N mutant)

[1] = target: HIV-1 reverse transcriptase, wild type (WT) (Human immunodeficiency virus type 1 (BRU ISOLATE), UniProt P03367); assay: Reverse Transcriptase (RT) assay, wild type enzyme; format: biochemical, Human Immunodeficiency Virus (HIV-1), LAV strain; conditions: 1 μM compound; RNA-dependent DNA polymerase activity; read-out: RT (WT) % inh. (1 μM)
Excerpt: Utilizing the Reverse Transcriptase (RT) Assay described below, compounds can be tested for their ability to inhibit the RNA-dependent DNA polymerase activity of HIV-1 RT.
Among the enzymes for which Human Immunodeficiency Virus (HIV-1) encodes is a reverse transcriptase (1), so-named because it transcribes a DNA copy from an RNA template. This activity can be quantitatively measured in a cell-free enzyme assay, which has been previously described (2), and is based upon the observation that reverse transcriptase is able to use a synthetic template [poly r(C) primed with oligo d(G)] to transcribe a radio-labelled, acid-precipitable DNA strand utilizing ^3 H-dGTP as a substrate. The assay described below utilizes the wild type (WT) enzyme, which is the predominant form of the enzyme observed in patients infected with HIV-1.
Reverse transcriptase enzyme from the LAV strain of Human Immunodeficiency Virus (HIV-1) (1) was isolated from the bacterial strain JM109 (3) expressing the DNA clone pBRTprtl+ (2) which is under the control of the lac promotor in the expression vector pIBI21 (4). […] At that time the repressor inhibitor IPTG (isopropyl β-D-thiogalactopyranoside) is added to 0.5 mM, and the mixture is incubated for 2 additional hours. […] The cells are lysed by the addition of 0.2% NP-40 and brought to 1M NaCl. […]

HIV-1 RT (Y181C) mutant = target: T2, HIV-1 RT (Y181C) mutant (Human immunodeficiency virus type 1 (BRU ISOLATE), UniProt P03367, Y780C); assay: biochemical; design: species or system Human Immunodeficiency Virus (HIV-1); conditions: 1 μM compound; RNA-dependent DNA polymerase activity; read-out: RT (Y181C) % inh. (1 μM)
T2 construct: Y181C by site-directed mutagenesis

HIV-1 RT (L100I) mutant = target: T3, HIV-1 RT (L100I) mutant (Human immunodeficiency virus type 1 (BRU ISOLATE), UniProt P03367, L699I); format: biochemical, Human Immunodeficiency Virus (HIV-1); conditions: 1 μM compound; RNA-dependent DNA polymerase activity
T3 construct: L100I mutant

HIV-1 RT (P236L) mutant = target: T4, HIV-1 RT (P236L) mutant (Human immunodeficiency virus type 1 (BRU ISOLATE), UniProt P03367, P835L); format: biochemical, Human Immunodeficiency Virus (HIV-1); conditions: 1 μM compound; RNA-dependent DNA polymerase activity
T4 construct: P236L mutant

Compound	inhibition at 1 µM (HIV-1 RT (K103N) mutant) [%]	inhibition at 1 µM [1] [%]	inhibition at 1 µM (HIV-1 RT (Y181C) mutant) [%]	RT (L100I) % inh. (1 μM) (HIV-1 RT (L100I) mutant) [%]	RT (P236L) % inh. (1 μM) (HIV-1 RT (P236L) mutant) [%]
CCN1c2ncccc2C=Cc2cccnc21 [Example 1, 11-Ethyl-dipyrido[2,3-b:3',2'-f]azepine]	73	98	53	81	99
C1=Cc2cccnc2N(C2CC2)c2ncccc21 [Example 2, 11-Cyclopropyl-dipyrido[2,3-b:3',2'-f]azepine]	55	97	41	80	98
